Patent publication US11542259B2, “Compounds for the treatment of kinase-dependent disorders” (Exelixis, Inc., priority 2018, dated 2023)

Experiments:
KDR = KDR (Homo sapiens (Human), UniProt P35968); assay: KDR autophosphorylation ELISA in HUVEC cells; format: cell-based; details: cellular, VEGF165 stimulated
Experimental: Human umbilical vein endothelial cells or HUVEC (Lonza #C2519A) were seeded at 2×10^4 cells/well onto 96-well plates (Corning #3904), in EGM-2 growth medium (Lonza #CC-3162) containing 1% Penicillin Streptomycin (Thermo Fisher #15140-122). HUVEC cells were incubated at 37° C., 5% CO2 for 24 h and then starved for 24 h in serum-free EBM-2 basal medium (Lonza #CC-3156) containing 1% Penicillin Streptomycin. Test compounds were serially diluted to produce an 8-point dose curve in fresh serum-free medium to a final concentration of 0.3% DMSO (vehicle) and added to the cells and incubated for 1 h. Cells were then stimulated with 100 ng/mL recombinant human VEGF165 (R&D Systems #293-VE-500) for 5 min, washed with cold PBS, and immediately lysed with 130 μL of cold 1× lysis buffer [20 mM Tris, 137 mM sodium chloride, 2 mM EDTA, 10% glycerol, 1% NP-40 alternative, 1 mM activated sodium orthovanadate, 1 mM PefaBloc SC (Sigma-Aldrich #11429868001), protease/phosphatase inhibitor tablet (Thermo Fisher #A32959)]. Lysates were collected and 100 μL/well added into the human phospho-KDR DuoSet IC ELISA (R&D Systems #DYC1766-2). Assay was performed according to manufacturer's instructions and sample phospho-KDR concentrations were extrapolated using human phospho-KDR control (R&D Systems #841421) as a standard. Positive control wells (100% activity) contained VEGF165-stimulated, DMSO-treated cell lysates. Negative control wells (0% activity) contained non-stimulated cell lysates. IC50 values were calculated by nonlinear regression analysis using a 4-parameter logistic curve fit in ActivityBase XE (IDBS).

[1] = target: Human Met (residues R974-S1390 with A1209G and V1290L) (Homo sapiens, UniProt P08581); assay: Human Met kinase assay (33P radiometric, KinaseProfiler); format: biochemical; details: 10 μM ATP, read-out: c-Met IC50
Experimental: (§1) Kinase activity and compound inhibition were investigated using the ^33P-Phosphoryl transfer radiometric kinase assay, performed using the KinaseProfiler™ service of Eurofins Pharma Discovery Services UK Limited. Dose-response experiments were performed using nine compound concentrations in a 96-well microtiter plate. For each assay, all compounds were prepared to a 50× final assay concentration (50 μM) in 100% DMSO, then diluted in a half-log series, with the final top concentration at 1 μM. This working stock of the compound was added to the assay well as the first component in the reaction, followed by the remaining components as detailed in the following assay protocols below. The positive control wells (100% kinase activity) contain all components of the reaction including 2% DMSO (control for solvent effects), except the compound of interest. Blank wells contain all components of the reaction, with the reference inhibitor, staurosporine. This reference compound was used to abolish kinase activity and generated the 0% kinase activity base-line. IC50 values were calculated by nonlinear regression analysis using the sigmoidal dose-response (variable slope) curve fit on XLFit version 5.3 (ID Business Solutions).
Human Met (residues R974-S1390 with A1209G and V1290L, 3.4 nM) was incubated with 8 mM MOPS pH 7.0, 0.2 mM EDTA, 250 μM KKKGQEEEYVFIE (SEO ID NO. 45), 1 mM sodium orthovanadate, 5 mM […], 10 mM magnesium acetate, and 10 μM [γ-33P-ATP]. The reaction was initiated by the addition of the Mg/ATP mix. After incubation for 40 minutes at room temperature, the reaction was stopped by the addition of phosphoric acid to a concentration of 0.5%. A reaction aliquot of […] was then spotted onto a P30 filtermat and washed four times for 4 minutes in 0.425% phosphoric acid and once in methanol prior to drying and scintillation counting. Incorporated 33P was measured using the Wallac Microbeta scintillation counter (Perkin Elmer).

AXL = AXL (Homo sapiens (Human), UniProt P30530); assay: AXL autophosphorylation ELISA in A-172 cells; format: cell-based; details: cellular, Gas6 stimulated
Experimental: A-172 glioblastoma cells (ATCC #CRL-1620) were seeded at 2.5×10^5 cells/well onto 24-well plates (Greiner #662165), in DMEM (Thermo Fisher #11995-040) containing 10% FBS (Thermo Fisher #26140-079), 1% MEM NEAA (Thermo Fisher #11140-050), 1% GlutaMax (Thermo Fisher #35050-061) and 1% Penicillin Streptomycin (Thermo Fisher #15140-122). A-172 cells were incubated at 37° C., 5% CO2 for 24 h and then starved for 24 h in serum-free medium. Test compounds were serially diluted to produce an 8-point dose curve in fresh serum-free medium to a final concentration of 0.3% DMSO (vehicle) and added to the cells and incubated for 1 h. Cells were then stimulated with 1 μg/mL recombinant human Gas6 (R&D Systems #885-GSB-500) for 15 min, washed with cold PBS and immediately lysed with 150 μL of cold 1× lysis buffer [20 mM Tris, 137 mM sodium chloride, 2 mM EDTA, 10% glycerol, 1% NP-40 alternative, 1 mM activated sodium orthovanadate, 1 mM PefaBloc SC (Sigma-Aldrich #11429868001), protease/phosphatase inhibitor tablet (Thermo Fisher #A32959)]. Lysates were collected and 100 μL/well added into the human phospho-AXL DuoSet IC ELISA (R&D Systems #DYC2228-2). Assay was performed according to manufacturer's instructions and sample phospho-AXL concentrations were extrapolated using human phospho-AXL control (R&D Systems #841645) as a standard. Positive control wells (100% activity) contained Gash-stimulated, DMSO-treated cell lysates. Negative control wells (0% activity) contained Gash-stimulated, reference inhibitor-treated cell lysates. IC50 values were calculated by nonlinear regression analysis using a 4-parameter logistic curve fit in ActivityBase XE (IDBS).

[2] = target: Human Mer (residues R557-E882 with H628Q and R794A) (Homo sapiens (Human), UniProt Q12866); assay: Human Mer kinase assay (33P radiometric, KinaseProfiler); format: biochemical; details: 10 μM ATP
Experimental: as §1
Human Mer (residues R557-E882 with H628Q and R794A, 0.7 nM) was incubated with 8 mM MOPS pH 7.0, 0.2 mM EDTA, 30 mM NaCl, 250 μM GGMEDIYFEFMGGKKK (SEO ID NO. 44). 10 mM magnesium acetate, and 10 μM [γ-^33P-ATP]. The reaction was initiated by the addition of the Mg/ATP mix. After incubation for 40 minutes at room temperature, the reaction was stopped by the addition of phosphoric acid to a concentration of 0.5%. A reaction aliquot of 10 μL was then spotted onto a P30 filtermat and washed four times for 4 minutes in 0.425% phosphoric acid and once in methanol prior to drying and scintillation counting. Incorporated ^33P was measured using the Wallac Microbeta scintillation counter (Perkin Elmer).

Met = Met (Homo sapiens (Human), UniProt P08581); assay: Met autophosphorylation ELISA in PC-3 cells; format: cell-based; details: cellular, HGF stimulated, read-out: c-Met IC50
Experimental: PC-3 prostate cancer cells (ATCC #CRL-1435) were seeded at 4×10^4 cells/well onto 24-well plates (Greiner #662165), in DMEM (Thermo Fisher #11995-040) containing 10% FBS (Thermo Fisher #26140-079), 1% MEM NEAA (Thermo Fisher #11140-050), 1% GlutaMax (Thermo Fisher #35050-061), and 1% Penicillin Streptomycin (Thermo Fisher #15140-122). PC-3 cells were incubated at 37° C., 5% CO2 for 24 h and then starved for 3 h in serum-free medium. Test compounds were serially diluted to produce an 8-point dose curve in fresh serum-free medium to a final concentration of 0.3% DMSO (vehicle) and added to the cells and incubated for 1 h. Cells were then stimulated with 100 ng/mL recombinant human HGF (R&D Systems #294-HG-250) for 10 min, washed with cold PBS and immediately lysed with 130 μL of cold 1× lysis buffer [20 mM Tris, 137 mM sodium chloride, 2 mM EDTA, 10% glycerol, 1% NP-40 alternative, 1 mM activated sodium orthovanadate, 1 mM PefaBloc SC (Sigma-Aldrich #11429868001), protease/phosphatase inhibitor tablet (Thermo Fisher #A32959)]. Lysates were clarified by centrifugation and 100 μL/well added into the PathScan phospho-Met (panTyr) Sandwich ELISA (Cell Signaling Technology #7333). Assay was performed according to manufacturer's instructions. Positive control wells (100% activity) contained HGF-stimulated, DMSO-treated cell lysates. Negative control wells (0% activity) contained HGF-stimulated, reference inhibitor-treated cell lysates. IC50 values were calculated by nonlinear regression analysis using a 4-parameter logistic curve fit in ActivityBase XE (IDBS).

[3] = target: Human Axl (residues H473-A894 with Q764R) (Homo sapiens (Human), UniProt P30530, Q764R); assay: Human AXL kinase assay (33P radiometric, KinaseProfiler); format: biochemical; details: 10 μM ATP
Experimental: as §1
Human Axl (residues H473-A894 with Q764R, 161 nM) was incubated with 8 mM MOPS pH 7.0, 0.2 mM EDTA, 250 μM KKSRGDYMTMQIG (SEO ID NO. 43) 10 mM magnesium acetate and 10 μM [γ-33P-ATP]. The reaction was initiated by the addition of the Mg/ATP mix. After incubation for 40 minutes at room temperature, the reaction was stopped by the addition of phosphoric acid to a concentration of 0.5%. A reaction aliquot of 10 μL was then spotted onto a P30 filtermat and washed four times for 4 minutes in 0.425% phosphoric acid and once in methanol prior to drying and scintillation counting. Incorporated ^33P was measured using the Wallac Microbeta scintillation counter (Perkin Elmer).

Chain of Human Mer (residues R557-E882 with H628Q and R794A) (Q12866 557-882, stated change not applied): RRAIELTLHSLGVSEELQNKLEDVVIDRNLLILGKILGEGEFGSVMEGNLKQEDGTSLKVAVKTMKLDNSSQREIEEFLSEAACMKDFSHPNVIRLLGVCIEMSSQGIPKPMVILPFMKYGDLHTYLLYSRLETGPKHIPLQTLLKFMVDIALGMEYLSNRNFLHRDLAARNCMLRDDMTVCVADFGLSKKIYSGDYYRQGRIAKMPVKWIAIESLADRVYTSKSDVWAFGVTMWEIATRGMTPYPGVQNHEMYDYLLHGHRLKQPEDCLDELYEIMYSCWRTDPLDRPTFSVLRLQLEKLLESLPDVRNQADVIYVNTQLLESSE
Chain of KDR (P35968 20-1356): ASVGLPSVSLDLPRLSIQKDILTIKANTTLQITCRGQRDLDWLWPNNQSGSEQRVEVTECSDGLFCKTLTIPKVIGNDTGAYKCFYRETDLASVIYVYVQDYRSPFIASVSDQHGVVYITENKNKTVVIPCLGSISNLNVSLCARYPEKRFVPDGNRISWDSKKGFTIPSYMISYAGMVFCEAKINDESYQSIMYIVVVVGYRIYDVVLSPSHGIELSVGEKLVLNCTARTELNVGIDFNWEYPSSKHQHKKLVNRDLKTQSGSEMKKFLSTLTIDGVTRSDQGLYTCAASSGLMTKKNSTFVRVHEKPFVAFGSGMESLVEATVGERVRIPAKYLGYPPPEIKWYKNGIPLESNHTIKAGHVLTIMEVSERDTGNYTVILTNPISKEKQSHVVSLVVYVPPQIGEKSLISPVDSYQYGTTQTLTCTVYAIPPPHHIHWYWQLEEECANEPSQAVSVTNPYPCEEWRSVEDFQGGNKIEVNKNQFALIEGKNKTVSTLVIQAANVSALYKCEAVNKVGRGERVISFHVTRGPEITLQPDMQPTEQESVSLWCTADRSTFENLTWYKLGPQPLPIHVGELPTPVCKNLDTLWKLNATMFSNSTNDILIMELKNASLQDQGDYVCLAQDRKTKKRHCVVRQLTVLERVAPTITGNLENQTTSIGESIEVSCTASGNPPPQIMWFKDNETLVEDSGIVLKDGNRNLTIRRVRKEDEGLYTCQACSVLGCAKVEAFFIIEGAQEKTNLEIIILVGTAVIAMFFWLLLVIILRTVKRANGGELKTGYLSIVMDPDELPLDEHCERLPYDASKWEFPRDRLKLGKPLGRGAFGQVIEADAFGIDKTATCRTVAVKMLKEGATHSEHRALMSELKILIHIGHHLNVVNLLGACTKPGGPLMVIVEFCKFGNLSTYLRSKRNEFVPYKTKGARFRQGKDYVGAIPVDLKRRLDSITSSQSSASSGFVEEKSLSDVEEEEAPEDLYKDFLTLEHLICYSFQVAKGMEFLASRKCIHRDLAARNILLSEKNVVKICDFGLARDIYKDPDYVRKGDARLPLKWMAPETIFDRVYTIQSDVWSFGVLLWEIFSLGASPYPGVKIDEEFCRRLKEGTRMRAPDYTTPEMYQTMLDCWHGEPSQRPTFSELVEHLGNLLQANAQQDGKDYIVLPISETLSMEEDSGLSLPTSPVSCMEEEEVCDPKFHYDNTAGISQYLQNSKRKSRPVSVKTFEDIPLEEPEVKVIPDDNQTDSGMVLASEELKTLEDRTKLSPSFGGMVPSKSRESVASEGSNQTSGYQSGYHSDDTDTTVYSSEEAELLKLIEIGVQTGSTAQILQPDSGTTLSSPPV
Chain of AXL (P30530 26-894): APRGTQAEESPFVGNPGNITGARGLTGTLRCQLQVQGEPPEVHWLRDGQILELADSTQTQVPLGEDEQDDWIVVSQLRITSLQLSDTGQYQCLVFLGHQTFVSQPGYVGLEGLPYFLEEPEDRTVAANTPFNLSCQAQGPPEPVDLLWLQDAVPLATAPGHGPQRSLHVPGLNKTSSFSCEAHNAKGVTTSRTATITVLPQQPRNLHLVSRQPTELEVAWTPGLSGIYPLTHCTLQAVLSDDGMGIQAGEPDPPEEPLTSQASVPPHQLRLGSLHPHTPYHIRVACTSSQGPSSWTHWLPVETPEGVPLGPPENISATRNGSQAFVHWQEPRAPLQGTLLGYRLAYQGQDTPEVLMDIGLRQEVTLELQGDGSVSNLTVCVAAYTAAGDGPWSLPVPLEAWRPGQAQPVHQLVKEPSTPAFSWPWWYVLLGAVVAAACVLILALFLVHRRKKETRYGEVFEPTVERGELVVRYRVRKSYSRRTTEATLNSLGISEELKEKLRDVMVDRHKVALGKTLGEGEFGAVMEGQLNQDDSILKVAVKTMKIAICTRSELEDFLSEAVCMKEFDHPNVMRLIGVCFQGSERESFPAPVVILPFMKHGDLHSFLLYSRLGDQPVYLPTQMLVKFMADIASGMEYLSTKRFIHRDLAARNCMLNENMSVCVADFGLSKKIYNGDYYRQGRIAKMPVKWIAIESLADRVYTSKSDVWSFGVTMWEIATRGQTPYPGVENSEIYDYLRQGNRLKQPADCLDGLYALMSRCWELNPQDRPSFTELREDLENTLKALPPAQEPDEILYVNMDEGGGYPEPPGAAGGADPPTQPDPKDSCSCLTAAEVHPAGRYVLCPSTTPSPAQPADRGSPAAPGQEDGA
Chain of Human Axl (residues H473-A894 with Q764R) (P30530 473-894 Q764R): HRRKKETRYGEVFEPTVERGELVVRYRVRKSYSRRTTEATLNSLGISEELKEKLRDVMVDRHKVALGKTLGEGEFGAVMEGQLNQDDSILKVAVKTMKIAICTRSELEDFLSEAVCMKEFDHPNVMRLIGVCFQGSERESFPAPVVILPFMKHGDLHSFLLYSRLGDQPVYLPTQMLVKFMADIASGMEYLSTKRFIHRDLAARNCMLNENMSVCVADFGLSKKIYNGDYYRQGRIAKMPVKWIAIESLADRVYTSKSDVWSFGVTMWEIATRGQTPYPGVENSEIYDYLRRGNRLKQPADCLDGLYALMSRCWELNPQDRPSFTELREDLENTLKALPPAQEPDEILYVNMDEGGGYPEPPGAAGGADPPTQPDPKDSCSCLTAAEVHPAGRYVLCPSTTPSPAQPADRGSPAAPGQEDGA
Chain of Met (P08581 25-1390): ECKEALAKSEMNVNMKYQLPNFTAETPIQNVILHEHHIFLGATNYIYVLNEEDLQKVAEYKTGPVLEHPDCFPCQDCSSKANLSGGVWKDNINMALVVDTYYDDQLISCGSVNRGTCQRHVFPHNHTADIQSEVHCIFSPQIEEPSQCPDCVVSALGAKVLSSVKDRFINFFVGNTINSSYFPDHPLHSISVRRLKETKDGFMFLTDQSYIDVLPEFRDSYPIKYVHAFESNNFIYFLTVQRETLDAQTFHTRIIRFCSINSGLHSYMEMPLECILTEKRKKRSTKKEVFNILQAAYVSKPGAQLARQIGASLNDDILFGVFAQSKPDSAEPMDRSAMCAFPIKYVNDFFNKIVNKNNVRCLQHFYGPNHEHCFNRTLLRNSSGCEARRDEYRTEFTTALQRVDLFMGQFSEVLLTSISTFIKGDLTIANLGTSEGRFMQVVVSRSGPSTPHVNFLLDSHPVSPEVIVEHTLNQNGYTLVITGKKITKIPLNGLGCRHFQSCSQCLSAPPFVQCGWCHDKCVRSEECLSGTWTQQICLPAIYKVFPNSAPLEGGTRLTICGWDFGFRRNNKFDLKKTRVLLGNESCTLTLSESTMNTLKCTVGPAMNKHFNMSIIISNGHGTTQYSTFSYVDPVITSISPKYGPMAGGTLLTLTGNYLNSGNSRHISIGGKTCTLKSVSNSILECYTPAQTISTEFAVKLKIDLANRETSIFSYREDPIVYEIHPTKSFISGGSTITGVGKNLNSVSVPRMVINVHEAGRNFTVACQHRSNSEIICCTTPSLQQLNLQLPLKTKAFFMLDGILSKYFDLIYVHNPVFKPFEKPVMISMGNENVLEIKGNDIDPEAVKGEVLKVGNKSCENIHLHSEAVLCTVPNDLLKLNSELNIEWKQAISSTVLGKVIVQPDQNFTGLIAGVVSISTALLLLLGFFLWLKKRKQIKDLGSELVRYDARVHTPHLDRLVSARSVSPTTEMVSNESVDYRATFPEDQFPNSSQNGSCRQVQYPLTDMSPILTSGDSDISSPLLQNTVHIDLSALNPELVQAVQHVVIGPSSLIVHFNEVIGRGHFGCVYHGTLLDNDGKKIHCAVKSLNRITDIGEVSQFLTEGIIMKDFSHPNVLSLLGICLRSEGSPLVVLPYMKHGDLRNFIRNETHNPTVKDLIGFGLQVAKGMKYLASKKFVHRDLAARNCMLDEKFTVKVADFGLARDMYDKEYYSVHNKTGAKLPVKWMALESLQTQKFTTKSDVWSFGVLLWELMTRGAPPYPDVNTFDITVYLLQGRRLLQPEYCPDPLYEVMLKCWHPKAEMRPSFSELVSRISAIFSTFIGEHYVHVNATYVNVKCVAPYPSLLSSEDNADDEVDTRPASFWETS

SMILES | IC50 (KDR) | IC50 [1] | IC50 (AXL) | IC50 [2] | IC50 (Met) | IC50 [3]
COc1cc2nccc(Oc3ccc(NC(=O)C4(C(=O)Nc5ccc(F)cc5)CC4)cc3)c2cc1C(=O)NC[C@@H]1CCCN1 [Compound 22, 1-N′-(4-fluorophenyl)-1-N-[4-[7-methoxy-6-[[(2S)-pyrrolidin-2-yl]methylcarbamoyl]quinolin-4-yl]oxyphenyl]cyclopropane-1,1-dicarboxamide] | 10 to 100 nM | ≤ 10 nM | ≤ 10 nM | ≤ 10 nM | 10 to 100 nM | –
NC(=O)c1cc2c(Oc3ccc(NC(=O)C4(C(=O)Nc5ccc(F)cc5)CC4)cc3)ccnc2cc1Cl [Compound 68, 1-N-[4-(6-carbamoyl-7-chloroquinolin-4-yl)oxyphenyl]-1-N′-(4-fluorophenyl)cyclopropane-1,1-dicarboxamide] | – | 10 to 100 nM | – | 10 to 100 nM | – | 100 to 1000 nM
COc1cc2nccc(Oc3ccc(NC(=O)C4(C(=O)Nc5ccc(F)cc5)CC4)cc3)c2cc1C(=O)NCCN(C)C [Compound 10, 1-N-[4-[6-[2-(dimethylamino)ethylcarbamoyl]-7-methoxyquinolin-4-yl]oxyphenyl]-1-N′-(4-fluorophenyl)cyclopropane-1,1-dicarboxamide] | – | ≤ 10 nM | – | ≤ 10 nM | – | 10 to 100 nM
COc1cc2nccc(Oc3ccc(NC(=O)C4(C(=O)Nc5ccc(F)cc5)CC4)cc3)c2cc1-c1cccn1C(=O)OC(C)(C)C [Compound 181, tert-butyl 2-[4-[4-[[1-[(4-fluorophenyl)carbamoyl]cyclopropanecarbonyl]amino]phenoxy]-7-methoxyquinolin-6-yl]pyrrole-1-carboxylate] | – | 10 to 100 nM | – | 10 to 100 nM | – | 100 to 1000 nM
COc1cc2nccc(Oc3ccc(NC(=O)C4(C(=O)Nc5ccc(F)cc5)CC4)cc3)c2cc1C(=O)NC[C@H]1CCCN1 [Compound 21, 1-N′-(4-fluorophenyl)-1-N-[4-[7-methoxy-6-[[(2R)-pyrrolidin-2-yl]methylcarbamoyl]quinolin-4-yl]oxyphenyl]cyclopropane-1,1-dicarboxamide] | 10 to 100 nM | ≤ 10 nM | ≤ 10 nM | ≤ 10 nM | 10 to 100 nM | –
O=C(O)c1ccc2c(Oc3ccc(NC(=O)C4(C(=O)Nc5ccc(F)cc5)CC4)cc3)ccnc2c1 [Compound 163, 4-[4-[[1-[(4-fluorophenyl)carbamoyl]cyclopropanecarbonyl]amino]phenoxy]quinoline-7-carboxylic acid] | – | 10 to 100 nM | – | 100 to 1000 nM | – | 100 to 1000 nM
COc1cc2nccc(Oc3ccc(NC(=O)C4(C(=O)Nc5ccc(F)cc5)CC4)cc3)c2cc1C(=O)NCCN1CCCCC1 [Compound 11, 1-N′-(4-fluorophenyl)-N-[4-[7-methoxy-6-(2-piperidin-1-ylethylcarbamoyl)quinolin-4-yl]oxyphenyl]cyclopropane-1,1-dicarboxamide] | ≤ 10 nM | ≤ 10 nM | ≤ 10 nM | ≤ 10 nM | 10 to 100 nM | –
NC(=O)c1cc2c(Oc3ccc(NC(=O)C4(C(=O)Nc5ccc(F)cc5)CC4)cc3)ccnc2cc1Br [Compound 69, 1-N-[4-(7-bromo-6-carbamoylquinolin-4-yl)oxyphenyl]-1-N′-(4-fluorophenyl)cyclopropane-1,1-dicarboxamide] | – | 10 to 100 nM | – | 10 to 100 nM | – | 100 to 1000 nM
COc1cc2nccc(Oc3ccc(NC(=O)C4(C(=O)Nc5ccc(F)cc5)CC4)cc3)c2cc1C(=O)NCCN1CCOCC1 [Compound 12, 1-N′-(4-fluorophenyl)-1-N-[4-[7-methoxy-6-(2-morpholin-4-ylethylcarbamoyl)quinolin-4-yl]oxyphenyl]cyclopropane-1,1-dicarboxamide] | ≤ 10 nM | ≤ 10 nM | ≤ 10 nM | ≤ 10 nM | 10 to 100 nM | –
